# Tested on: diethylnitrosamine-induced hepatocarcinogenic rats
# Assay: 1H-NMR-based serum metabolic profiling
# Format: in vivo, albino Wistar rats
# Conditions: rat serum
# Protocol: All animals were randomly divided into five groups of six animals each. Drugs were suspended in 0.25% CMC, subjected to 28 days’ treatment orally and divided as follows: Group I: 0.25% CMC (2 ml/kg), Group II: DEN (8 mg/kg, intraperitoneally), Group III: DEN+5-fluorouracil (5-FU, 10 mg/kg, intraperitoneally), Group IV: DEN+M1 (50 mg/kg, orally) and Group V: DEN+M1 (100 mg/kg, orally). The procedure to induce HCC was adopted from a paper by Song et al. where it is shown that DEN produces HCC at 8 mg/kg intraperitoneal injection for 28 days to albino Wistar rats. After initial 1 week of adaptive inhabitation, all rats of group II–V were administered with DEN (8 mg/kg, intraperitoneally) for 28 days. After 28 days, 5-FU and M1 were given for 15 days as mentioned above for group III–V. At the end of the experimental period, animals were sacrificed by cervical decapitation and livers were dissected out immediately, rinsed in ice cold saline and stored at -20°C for further studies. The serum was collected, processed and stored for further analysis.
# All serum samples were thawed at room temperature, 250 μl of serum was taken and mixed with 250 μl of 0.9% saline sodium-phosphate buffer of strength 50 mM, pH 7.4 prepared in D2O. Then, the samples were centrifuged at 10,000 rpm for 5 min to remove any precipitates before acquiring the NMR data. A total 400 μl of the supernatant sample was used in 5 mm NMR tubes (Wilmad Glass, USA) for data acquisition with a co-axial insert containing the known concentration of TSP (sodium salt of 3-trimethylsilyl-(2,2,3,3-d4)-propionic acid) i.e. 0.1% was used as external standard reference to aid metabolite quantification for NMR experiment. Deuterium oxide (D2O; as a co-solvent and to provide a deuterium field/frequency lock) and sodium salt of trimethylsilylpropionic acid-d4 (TSP) used for NMR experiments, were purchased from Sigma-Aldrich (RI, USA).
# All NMR spectra were recorded at 298 K on Bruker Biospin Avance-III 800 MHz NMR spectrometer operating at proton frequency of 800.21 MHz, equipped with CryoProbe and an actively shielded gradient unit with a maximum gradient-strength output of […]. The raw NMR data were processed in Topspin-2.1 (Bruker NMR data Processing Software). For each serum sample, one-dimensional ^1H-NMR and diffusion edited ^1H NMR spectra were recorded using the Carr–Purcell–Meiboom–Gill (CPMG) pulse sequence (cpmgpr1d, standard Bruker pulse program) with pre-saturation of the water peak through irradiating it continuously during the recycle delay (RD) of 5 sec, and the bipolar pulse pair longitudinal eddy current delay (BPP-LED) sequence, respectively. Each CPMG spectrum consisted of the accumulation of 128 scans and lasted for approximately 15 minutes. To remove broad signals from triglycerides, proteins, cholesterols and phospholipids, a total spin–spin relaxation time of 60 ms (n = 300 and 2τ=[…]) with a line broadening factor of 0.3 Hz was applied. For diffusion edited (DE)^1H NMR pulse sequence, the square gradients of 70% of the maximum gradient strength (56 G/cm) and 2 ms duration (followed by a delay of 200 μs to allow for the decay of eddy currents) were used. Diffusion time of 120 ms was used to attenuate the signals from low molecular weight compounds without affecting the lipid signals. All the spectra were processed using Topspin-2.1 (Bruker NMR data Processing Software) using standard Fourier Transformation (FT) procedure following manual phase and baseline-correction. Prior to FT, each FID was zero-filled to 4096 data points and a sine-bell apodisation function was applied. After FT, the chemical shifts were referenced internally to methyl peak of L-lactate (at δ=1.33 ppm). All recorded spectra were visually inspected for acceptability and subjected to multivariate statistical analysis to identify the altered metabolic pattern. […]
compound,measurement,setting,value
"COc1cc2c(cc1OC)CC(C(=O)O)NC2 (stereo not shown) [M1, 6,7-dimethoxy-1,2,3,4-tetrahydro-isoquinoline-3-carboxylic acid]",Variation with respect to DEN: Acac (chemical shift 2.28),DEN+M1 50 mg/kg orally,↑
same,Variation with respect to DEN: Ace (chemical shift 1.92),DEN+M1 50 mg/kg orally,↓
same,Variation with respect to DEN: Acet (chemical shift 2.23),DEN+M1 50 mg/kg orally,↑
same,Variation with respect to DEN: Ala (chemical shift 1.48),DEN+M1 50 mg/kg orally,↓
same,Variation with respect to DEN: Betaine (chemical shift 3.265),DEN+M1 50 mg/kg orally,↓
same,Variation with respect to DEN: Chol (chemical shift 3.22),DEN+M1 50 mg/kg orally,↓
same,Variation with respect to DEN: Cit (chemical shift 2.52),DEN+M1 50 mg/kg orally,↑
same,Variation with respect to DEN: Cr (chemical shift 3.03),DEN+M1 50 mg/kg orally,↑
same,Variation with respect to DEN: L1 (LDL) (chemical shift 0.83–0.87),DEN+M1 50 mg/kg orally,↓
same,Variation with respect to DEN: L2 (VLDL) (chemical shift 0.87–0.90),DEN+M1 50 mg/kg orally,↑
same,Variation with respect to DEN: L3 (LDL) (chemical shift 1.23–1.27),DEN+M1 50 mg/kg orally,↓
same,Variation with respect to DEN: L4 (VLDL) (chemical shift 1.27–1.30),DEN+M1 50 mg/kg orally,↑
same,Variation with respect to DEN: L6 (chemical shift 2.00),DEN+M1 50 mg/kg orally,↓
same,Variation with respect to DEN: L9 (chemical shift 5.28),DEN+M1 50 mg/kg orally,↓
same,Variation with respect to DEN: Leu (chemical shift 0.96),DEN+M1 50 mg/kg orally,↑
same,Variation with respect to DEN: Lys (chemical shift 1.89),DEN+M1 50 mg/kg orally,↓
same,Variation with respect to DEN: NAG (chemical shift 2.02),DEN+M1 50 mg/kg orally,↑
same,Variation with respect to DEN: OAG (chemical shift 2.13),DEN+M1 50 mg/kg orally,↑
same,Variation with respect to DEN: Pyr (chemical shift 2.37),DEN+M1 50 mg/kg orally,↓
same,Variation with respect to DEN: Tyr (chemical shift 6.89),DEN+M1 50 mg/kg orally,↓
same,Variation with respect to DEN: Acac (chemical shift 2.28),DEN+M1 100 mg/kg orally,↑
same,Variation with respect to DEN: Ace (chemical shift 1.92),DEN+M1 100 mg/kg orally,↓
same,Variation with respect to DEN: Acet (chemical shift 2.23),DEN+M1 100 mg/kg orally,↑
same,Variation with respect to DEN: Ala (chemical shift 1.48),DEN+M1 100 mg/kg orally,↓
same,Variation with respect to DEN: Betaine (chemical shift 3.265),DEN+M1 100 mg/kg orally,↓
same,Variation with respect to DEN: Chol (chemical shift 3.22),DEN+M1 100 mg/kg orally,↓
same,Variation with respect to DEN: Cit (chemical shift 2.52),DEN+M1 100 mg/kg orally,↑
same,Variation with respect to DEN: Cr (chemical shift 3.03),DEN+M1 100 mg/kg orally,↓
same,Variation with respect to DEN: ILeu (chemical shift 1.00),DEN+M1 100 mg/kg orally,↑
same,Variation with respect to DEN: L1 (LDL) (chemical shift 0.83–0.87),DEN+M1 100 mg/kg orally,↓
same,Variation with respect to DEN: L2 (VLDL) (chemical shift 0.87–0.90),DEN+M1 100 mg/kg orally,↑
same,Variation with respect to DEN: L4 (VLDL) (chemical shift 1.27–1.30),DEN+M1 100 mg/kg orally,↑
same,Variation with respect to DEN: Leu (chemical shift 0.96),DEN+M1 100 mg/kg orally,↑
same,Variation with respect to DEN: Lys (chemical shift 1.89),DEN+M1 100 mg/kg orally,↓
same,Variation with respect to DEN: NAG (chemical shift 2.02),DEN+M1 100 mg/kg orally,↑
same,Variation with respect to DEN: Pyr (chemical shift 2.37),DEN+M1 100 mg/kg orally,↓
same,Variation with respect to DEN: Tyr (chemical shift 6.89),DEN+M1 100 mg/kg orally,↓

# Source: PMC5583658, “6,7-dimethoxy-1,2,3,4-tetrahydro-isoquinoline-3-carboxylic acid attenuates heptatocellular carcinoma in rats with NMR-based metabolic perturbations” (Future Science OA, 2017)
